In brackets after ≈: the same amount, converted by molar mass. Several values for one entry are separate records, joined by “and”; a condition that tells them apart may be missing. Identical values can stand only once.
Columns and labels:
enoxaparin (ENOX) = assay: FXa chromogenic assay (absence of plasma), enoxaparin; details: enoxaparin 0.1 μg/mL, absence of plasma
UFH [1] = assay: FXa amidolytic assay in human plasma, UFH; type: biochemical; details: UFH 4 μg/mL
Method: (§1) Eight parts of pooled human plasma was supplemented with 1 part LMWH or UFH at final concentrations of 4 μg/mL, or fondarinux at a final concentration of 1.25 μg/mL. One 1 μL sample of test agent was then added to 9 μL of supplemented plasma (test agent concentration ranges=0.156 to 20 μg/mL) and mixed. The supplemented plasmas were analyzed immediately in clotting and amidolytic assays as described below. All samples were performed in duplicate.
FXa Amidolytic Assay: Bovine factor Xa was added to supplemented plasma and incubated for 5 minutes at 37° C. Spectrozyme FXa substrate was added and the optical density change at 405 nm was measured for 30 seconds. % factor Xa inhibition is calculated using the following equation:
(§2) % Inhibition=[(ODbaseline−ODsample)/ODbaseline]×100.

fondaparinux (FONDAPX) = assay: FXa chromogenic assay (absence of plasma), fondaparinux; details: fondaparinux 0.02 μg/mL, absence of plasma
[2] = system: unfractionated heparin (UFH); assay: aPTT clotting assay, UFH 0.2 U/mL in plasma (Example 7); type: biochemical; details: UFH 0.2 U/mL in plasma
Method: aPTT clotting Assay. Unfractionated heparin was mixed with plasma at a final concentration of 0.2 U/mL. […] The ACL Elite Hemostasis analyzer (Beckman Coulter™) was used to add aPTT reagent (HemosIL SynthASil) to supplemented plasma. Clotting was initiated by addition of CaCl2 and time to clot was recorded.

enoxaparin [3] = assay: FXa amidolytic assay in human plasma, enoxaparin; type: biochemical; details: enoxaparin 10 μg/mL, at a concentration of about 50 μg/mL
UFH [4] = assay: FIIa amidolytic assay in human plasma, UFH; type: biochemical; details: UFH 4 μg/mL
Method: as §1
FIIa Amidolytic Assay. Human thrombin was added to supplemented plasma and incubated for 1 minute at 37° C. Spectrozyme TH substrate was added and the optical density change at 405 nm was measured for 30 seconds in a SpectraMax 250 instrument. % factor IIa inhibition was calculated using the following equation:
as §2

[5] = Cytotoxicity colorimetric assay, HepG2; type: cell-based, human; details: human, HepG2 cells, one hour in serum-free media
How it was run: (§3)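 HepG2 cells (3×10^4/well, MEM + 10% FBS) and NIH/3T3 cells (2×10^4/well, DMEM + 10% BCS) were exposed to compound for 1 h in serum-free medium. Viability read by tetrazolium-to-formazan bioreduction after return to serum medium; EC50 from a four-parameter logistic fit.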

fondaparinux [6] = assay: FXa amidolytic assay (Example 10), fondaparinux; details: for EC50: read-out: Fondap FXa EC50, fondaparinux 0.02 μg/mL, human antithrombin, bovine Factor Xa
Method: (§4) Two μl of test agent are added (range between 0.01 and 23 ug/ml) and incubated for 5 minutes at 23° C. Bovine Factor Xa was added to a final concentration of 0.636 nkat/mL and incubated for a further 10 minutes at 23° C.

enoxaparin [7] = assay: FXa amidolytic assay (Example 10), enoxaparin; details: read-out: Enox FXa EC50; enoxaparin 0.1 ug/ml; human antithrombin, bovine Factor Xa
Method: as §4

[8] = system: isolated human erythrocytes; assay: cells; type: cell-based; details: for EC50: Homo sapiens, Erythrocyte, 1 h, human RBC, 1 hour at 37° C., read-out: Hemolysis EC50
How it was run: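 Test agent was serially diluted two-fold over 0.48–1000 µg/ml and incubated for 1 h at 37 °C with shaking, using erythrocytes from pooled human blood diluted in Tris-buffered saline pH 7.4 (0.22% stock). Hemolysis was measured as supernatant absorbance at 405 nm. A four-parameter logistic equation gave EC50, and melittin served as the positive control.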

Unfractionated heparin = assay: aPTT clotting assay, UFH 0.4 U/mL in plasma (Example 10); type: biochemical; details: unfractionated heparin 0.4 U/mL in plasma; aPTT clotting
Method: aPTT clotting Assay: Unfractionated heparin was mixed with plasma at a final concentration of 0.4 U/mL (or concentration which increases aPTT time to between 120 and 300 seconds). […] The ACL Elite Hemostasis analyzer (Beckman Coulter™) was used to add aPTT reagent (HemosIL SynthASil) to supplemented plasma. Clotting was initiated by addition of CaCl2 and time to clot was recorded.

UFH [9] = assay: In vivo neutralization of unfractionated heparin in the rat; details: UFH 100 U/kg IV, 1 mg/kg dose IV
Method: The male Sprague-Dawley rats used in this study were obtained from Charles River Laboratories, Raleigh. They were nine-weeks-old at the start of the study and their weights ranged from 279-334 g. Rats were pre-treated with UFH administered by IV injection in a tail vein at 100 U/kg in a dose volume of 1 mL/kg. The rats were then treated with a single IV injection of saline, protamine or the appropriate test compound at doses of 0.25, 0.5 and 1.0 mg/kg. All treatments were dosed in a volume of 1 mL/kg. Blood was collected via the orbital sinus from three rats per group at the following time points after treatment: predose, 1, 3, 10, 30 and 60. At each time point, 1 mL of blood was collected from each animal into a single tube. The blood was analyzed using an AMEX Destiny Plus Coagulation Analyzer for activated partial thromboplastintime (APTT) and anti-Factor Xa.

tinzaparin = assay: FXa amidolytic assay (Example 10), tinzaparin; details: read-out: Tinzap FXa EC50; tinzaparin 0.1 ug/ml; human antithrombin, bovine Factor Xa
Method: as §4

[10] = Cytotoxicity colorimetric assay, NIH/3T3; type: cell-based, mouse; details: mouse, NIH/3T3 cells, one hour in serum-free media
How it was run: as §3

UFH [11] = assay: FXa amidolytic assay (Example 10), UFH; details: read-out: Heparin FXa uM EC50; UFH 0.03 units/mL; human antithrombin, bovine Factor Xa
Method: as §4

HepG2 cells = assay: Cytotoxicity colorimetric assay, HepG2; type: cell-based, human; details: one hour in serum-free media
How it was run: as §3

enoxaparin [12] = assay: In vivo neutralization of enoxaparin in the rat
Method: Compounds were tested for their ability to neutralize enoxaparin coagulation inhibition in rats. Male Sprague-Dawley rats were used in this study (Charles River Laboratories). They were ten-weeks-old at the start of the study and their weights ranged from 319-362 g. Enoxaparin (2 mg/kg) was administered by IV injection to groups of six rats. After 3 min, saline, protamine or a test compound was administered by IV injection. Blood was collected before dosing with enoxaparin, and at 1, 3, 10, 30 and 60 min after dosing with the standard and test compounds. All treatments were dosed in a volume of 1 mL/kg. Blood was collected via the orbital sinus from three rats per group. At each time point, 1 mL of blood was collected from each animal into a single tube. The blood was analyzed using an AMEX Destiny Plus Coagulation Analyzer for activated partial thromboplastin time (APTT) and anti-Factor Xa (low-molecular weight).

fondaparinux [13] = assay: In vivo neutralization of fondaparinux in the rat; details: fondaparinux 0.5 mg/kg IV, test agent 2 and 5 mg/kg IV
Method: Compounds were selected to test fondaparinux neutralization in vivo. Rats were pre-treated with fondaparinux administered by IV injection at 0.5 mg/kg. The rats were then treated with a single IV injection of saline, protamine or the PMX compound. Blood was collected via the orbital sinus from three rats per group at the following time points: pre-dose, 1, 3, 10, 30 and 60 min. Plasma samples were prepared for analysis of anti-factor Xa activity using an AMEX Destiny Plus Coagulation Analyzer.

blood pressure = assay: Hemodynamic responses in the anesthetized rat; type: in vivo
Text: As a key safety issue for cationic compounds is reduction in blood pressure shortly after administration. To address this hemodynamic issue, a medicinal chemistry strategy with literature precedence of introducing carboxylic acid functionality was applied to the salicylamide series of compounds. […] Surgically prepared animals were purchased from Charles River Laboratories, Raleigh, N.C. Animals were anesthetized on the day of experiment with isoflurane (1.8-4%). Blood pressure and heart rate data were collected on a Grass Polygraph recorder. The test articles, vehicle or protamine dosing preparations were administered once to each rat by a 10 minute intravenous infusion three minutes following a single intravenous injection of heparin (50 U/kg). Each animal received a dose volume of 2.0 mL/kg. Blood pressure was recorded prior to treatment for approximately 1 minute and immediately following heparin, immediately following vehicle, test articles or protamine and at 5, 15, 30, and 60 minutes following dosing. The doses of test agent were either 8 mg/kg or 16 mg/kg. The differences in hemodynamic effect at 16 mg/kg were especially profound (FIG. 5).

NIH/3T3 cells = assay: Cytotoxicity colorimetric assay, NIH/3T3; type: cell-based, mouse; details: one hour in serum-free media
How it was run: as §3

[14] = Coagulation properties via ROTEM; details: at fully efficacious doses
enoxaparin [15] = assay: Enoxaparin-extended bleeding times, rat tail transection model; type: in vivo; details: rat, enoxaparin 2 mg/kg IV, test agent 5 mg/kg IV
Method: Studies have now been done to examine effects on extended bleeding times caused by enoxaparin treatment. Male Sprague Dawley rats (Charles River) were administered 2 mg/kg enoxaparin by IV injection in the tail vein, followed 3 minutes later by test agent (IV, tail vein) at 2 and 5 mg/kg doses. Tails were then rapidly transected and bleeding time onto an absorbant pad was determined. Enoxaparin alone (no antagonist) extends bleeding time from 11 to 24 seconds.

[16] = at a concentration of greater than about 25 μg/mL

## COc1ccc(NC(=O)[C@H](CCCCN)NC(=O)c2cc(NC(=O)[C@H](CCCCN)NC(=O)c3cc(NC(=O)[C@H](CCCCN)NC(=O)c4cc(NC(=O)[C@@H](N)CCCCN)ccc4OC)ccc3OC)ccc2OC)cc1C(N)=O [Compound 8]
Enoxaparin (ENOX)
  ENOX (FXa) EC50: 0.29 µg/mL
UFH [1]; [16]
  percent of the anticoagulant effect of UFH inhibited (FXa amidolytic): 90%-100%
UFH [1]; human plasma
  concentration antagonizing about 50% of the anticoagulant effect of UFH (FXa amidolytic): 12 to 18 µg/mL
Fondaparinux (FONDAPX)
  FONDAPX (FXa) EC50: 6.19 µg/mL
[2]
  UFH (aPTT) EC50: 2.26 µg/mL
Enoxaparin [3]
  percent of the anticoagulant effect of enoxaparin inhibited (FXa amidolytic): about 60%
UFH [4]; [16]
  percent of the anticoagulant effect of UFH inhibited (FIIa amidolytic): 98%-100%
UFH [4]; human plasma
  concentration antagonizing about 50% of the anticoagulant effect of UFH (FIIa amidolytic): 14 to 20 µg/mL

## COc1ccc(NC(=O)[C@@H](CCCNC(=N)N)NC(=O)c2cc(NC(=O)[C@@H](CCCNC(=N)N)NC(=O)c3cc(NC(=O)[C@@H](CCCNC(=N)N)NC(=O)c4cc(NC(=O)[C@@H](C)N)ccc4OC)ccc3OC)ccc2OC)cc1C(N)=O [Compound 16]
Enoxaparin (ENOX)
  ENOX (FXa) EC50: 0.32 µg/mL
Fondaparinux (FONDAPX)
  FONDAPX (FXa) EC50: 1.22 µg/mL
[2]
  UFH (aPTT) EC50: 2.41 µg/mL
Enoxaparin [3]
  percent of the anticoagulant effect of enoxaparin inhibited (FXa amidolytic): about 20%

## COc1cc(OC)c(C(=O)N[C@H]2CC[C@H](NC(=O)c3ccc(OCCCCCN)cc3OCCCCCN)CC2)cc1C(=O)N[C@H]1CC[C@H](NC(=O)c2ccc(OCCCCCN)cc2OCCCCCN)CC1 [Compound 335]
[5]
  EC50 at 1 h: 700 µg/mL (≈ 679 µM)
Fondaparinux [6]
  EC50: 1560 nM and 1390 nM
Enoxaparin [7]
  EC50: 185 nM and 201 nM
[8]
  EC50: > 1000 µg/mL
Unfractionated heparin
  EC50: 1700 nM and 1410 nM
UFH [9]
  neutralization of UFH activity in aPTT assays: complete neutralization
tinzaparin
  EC50: 148 nM and 120 nM
[10]
  EC50 at 1 h: 120 µg/mL (≈ 116 µM)
UFH [11]
  EC50: 0.151 µM

## COc1ccc(NC(=O)[C@H](CCCCN)NC(=O)c2cc(NC(=O)[C@H](CCCCN)NC(=O)c3cc(NC(=O)[C@H](CCCCN)NC(=O)c4cc(NC(=O)[C@@H](N)CCCCN)ccc4OC)ccc3OC)ccc2OC)cc1C(=O)N[C@@H](Cc1c[nH]c2ccccc12)C(=O)O [Compound 266]
HepG2 cells
  Cytotoxicity HepG2 EC50: >1000 µg/mL
[5]
  EC50 at 1 h: 534 µg/mL (≈ 407 µM)
Fondaparinux [6]
  Potent LMWH-antagonists with superior anti-fondaparinux activity (summary): superior anti-fondaparinux activity
  EC50: 214 nM and 265 nM and 368 nM
Enoxaparin [7]
  EC50: 122 nM and 162 nM and 164 nM
Enoxaparin [12]; compared with protamine
  in vivo efficacy versus LMWH by anti-factor Xa activity (summary): superior to protamine
Enoxaparin [12]; rat, enoxaparin 2 mg/kg IV
  neutralization of enoxaparin (aPTT and factor Xa assays, words): completely neutralizes enoxaparin within minutes
[8]
  hemolysis and cytotoxicity (summary): non-hemolytic and low cytotoxicity
  EC50: > 1000 µg/mL
Fondaparinux [13]
  reduction of Factor Xa (anti-factor Xa) levels after fondaparinux: effective at the higher 5 mg/kg dose
Unfractionated heparin
  EC50: 2440 nM and 1840 nM and 3480 nM
Blood pressure; anesthetized rat, 8 or 16 mg/kg 10 minute IV infusion after heparin 50 U/kg
  hemodynamic response profile: superior to protamine
Blood pressure; rat, in vivo
  hemodynamic liabilities (summary): reduced hemodynamic liabilities
tinzaparin
  EC50: 122 nM and 151 nM and 121 nM
NIH/3T3 cells
  Cytotoxicity 3T3 EC50: 848 µg/mL
[10]
  EC50 at 1 h: 838 µg/mL (≈ 638 µM)
[14]
  coagulation properties via ROTEM: normal coagulation properties at fully efficacious doses
Enoxaparin [15]
  neutralization of prolonged bleeding times: incomplete neutralization
UFH [11]
  EC50: 0.21 µM and 0.247 µM
